Assays:
Type in all cases: in vivo
[1] = test system: lambsquarter (Chenopodium album); assay: Preemergence herbicidal activity; details: Chenopodium album, pre-emergence, 480 h, pre-emergent, after 20-22 days, read-out: % Control CHEAL; for pest or weed control at 140 g/ha: 140 g ai/ha
Method in brief: (§1)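 Seeds sown in 70:30 loam (pH about 8.1, about 1.5% organic matter) and sand mix, then sprayed preemergence at 187 L/ha with a track sprayer; controls received solvent blank. Pots kept in greenhouse, about 15 h photoperiod, about 23-29° C. day and 22-28° C. night, top-irrigated.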

[2] = test system: velvetleaf (Abutilon theophrasti); assay: Preemergence herbicidal activity; details: Abutilon theophrasti, pre-emergence, 480 h, pre-emergent, after 20-22 days, read-out: % Control ABUTH; for pest or weed control at 140 g/ha: 140 g ai/ha
Method in brief: as §1

[3] = test system: redroot pigweed (Amaranthus retroflexus); assay: Preemergence herbicidal activity; details: Amaranthus retroflexus, pre-emergence, 480 h, pre-emergent, after 20-22 days, read-out: % Control AMARE; for pest or weed control at 140 g/ha: 140 g ai/ha
Method in brief: as §1

[4] = test system: lambsquarter (Chenopodium album); assay: Postemergence herbicidal activity; details: post-emergent, 140 g ai/ha, after 14 days; for pest or weed control at 140 g/ha: Chenopodium album, post-emergence, 336 h, read-out: % Control CHEAL
Method in brief: (§2)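 Plants grown 7-21 days in greenhouse (about 15 h photoperiod, 23-29° C day, 22-28° C night) to first or second true leaf stage. Compounds in acetone/water/isopropanol/DMSO carrier with crop oil concentrate and Triton X-155 sprayed overhead at 187 L/ha; controls received solvent blank. Plants sub-irrigated afterwards; dose responses analysed by probit analysis.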

[5] = test system: velvetleaf (Abutilon theophrasti); assay: Postemergence herbicidal activity; details: post-emergent, 140 g ai/ha, after 14 days; for pest or weed control at 140 g/ha: Abutilon theophrasti, post-emergence, 336 h, read-out: % Control ABUTH
Method in brief: as §2

[6] = test system: redroot pigweed (Amaranthus retroflexus); assay: Postemergence herbicidal activity; details: post-emergent, 140 g ai/ha, after 14 days; for pest or weed control at 140 g/ha: Amaranthus retroflexus, post-emergence, 336 h, read-out: % Control AMARE
Method in brief: as §2

Scirpus juncoides = assay: Herbicidal activity in transplanted paddy rice; details: Schoenoplectiella juncoides, 504 h, paddy water application, after 3 weeks, read-out: % Control SCPJU; for pest or weed control at 17.5 g/ha: 17.5 g ai/ha; for pest or weed control at 70 g/ha: 70 g ai/ha
Method in brief: (§3)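 Rice seedlings transplanted at second to third leaf stage and weeds from seed were grown in flooded mud pots in a greenhouse (~29/26 °C, 14 h photoperiod). At second or third true leaf stage, acetone stock solutions were injected into the paddy water at the high rate and ½× to 1/16× dilutions. Solvent-blank controls.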

[7] = test system: rice (Orysa sativa var. Japonica); assay: Herbicidal activity in transplanted paddy rice; details: Oryza sativa, 504 h, transplant rice (crop), paddy water application, after 3 weeks; for pest or weed control at 17.5 g/ha: 17.5 g ai/ha; for pest or weed control at 70 g/ha: 70 g ai/ha
Method in brief: as §3

Monochoria vaginalis = assay: Herbicidal activity in transplanted paddy rice; details: Pontederia vaginalis, 504 h, paddy water application, after 3 weeks, read-out: % Control MOOVA; for pest or weed control at 17.5 g/ha: 17.5 g ai/ha; for pest or weed control at 70 g/ha: 70 g ai/ha
Method in brief: as §3

Cyperus difformis = assay: Herbicidal activity in transplanted paddy rice; details: Cyperus difformis, 504 h, paddy water application, after 3 weeks, read-out: % Control CYPDI; for pest or weed control at 17.5 g/ha: 17.5 g ai/ha; for pest or weed control at 70 g/ha: 70 g ai/ha
Method in brief: as §3

Compound: COC(=O)c1nc(-c2ccc(Br)c(OC)c2F)cc(N)c1Cl [Compound 27, 4-amino-6-(4-bromo-2-fluoro-3-methoxyphenyl)-3-chloro-pyridine-2-carboxylic acid methyl ester]
- pest or weed control at 140 g/ha [1]: 90%
- pest or weed control at 140 g/ha [2]: 100%
- pest or weed control at 140 g/ha [3]: 100%
- pest or weed control at 140 g/ha [4]: 100%
- pest or weed control at 140 g/ha [5]: 100%
- pest or weed control at 140 g/ha [6]: 90%
- pest or weed control at 17.5 g/ha (Scirpus juncoides): 99%
- pest or weed control at 17.5 g/ha [7]: 0%
- pest or weed control at 17.5 g/ha (Monochoria vaginalis): 100%
- pest or weed control at 17.5 g/ha (Cyperus difformis): 100%

Compound: COC(=O)c1nc(-c2ccc(Cl)c(OC)c2F)cc(N)c1Cl [Compound 42, 4-Amino-3-chloro-6-(4-chloro-2-fluoro-3-methoxyphenyl)pyridine-2-carboxylic acid methyl ester]
- pest or weed control at 140 g/ha [1]: 100%
- pest or weed control at 140 g/ha [2]: 100%
- pest or weed control at 140 g/ha [3]: 100%
- pest or weed control at 140 g/ha [4]: 100%
- pest or weed control at 140 g/ha [5]: 100%
- pest or weed control at 140 g/ha [6]: 100%
- pest or weed control at 17.5 g/ha (Scirpus juncoides): 90%
- pest or weed control at 17.5 g/ha [7]: 5%
- pest or weed control at 17.5 g/ha (Monochoria vaginalis): 100%
- pest or weed control at 17.5 g/ha (Cyperus difformis): 100%

Compound: COC(=O)c1nc(-c2ccc(Cl)c(OC)c2Cl)cc(N)c1Cl [Compound 44, 4-Amino-3-chloro-6-(2,4-dichloro-3-methoxyphenyl)pyridine-2-carboxylic acid methyl ester]
- pest or weed control at 140 g/ha [1]: 95%
- pest or weed control at 140 g/ha [2]: 95%
- pest or weed control at 140 g/ha [3]: 30%
- pest or weed control at 140 g/ha [4]: 100%
- pest or weed control at 140 g/ha [5]: 100%
- pest or weed control at 140 g/ha [6]: 100%
- pest or weed control at 70 g/ha (Scirpus juncoides): 95%
- pest or weed control at 70 g/ha [7]: 0%
- pest or weed control at 70 g/ha (Monochoria vaginalis): 90%
- pest or weed control at 70 g/ha (Cyperus difformis): 100%

Compound: COC(=O)c1nc(-c2c(F)cc(Cl)c(OC)c2F)cc(N)c1Cl [Compound 58, 4-Amino-3-chloro-6-(4-chloro-2,6-difluoro-3-methoxyphenyl)pyridine-2-carboxylic acid, methyl ester]
- pest or weed control at 140 g/ha [1]: 100%
- pest or weed control at 140 g/ha [2]: 100%
- pest or weed control at 140 g/ha [3]: 100%
- pest or weed control at 140 g/ha [4]: 100%
- pest or weed control at 140 g/ha [5]: 100%
- pest or weed control at 140 g/ha [6]: 100%
- pest or weed control at 17.5 g/ha (Scirpus juncoides): 50%
- pest or weed control at 17.5 g/ha [7]: 0%
- pest or weed control at 17.5 g/ha (Monochoria vaginalis): 100%
- pest or weed control at 17.5 g/ha (Cyperus difformis): 100%

Compound: COC(=O)c1nc(-c2ccc(F)c(OC)c2F)cc(N)c1Cl [Compound 70, 4-Amino-3-chloro-6-(2,4-difluoro-3-methoxyphenyl)pyridine-2-carboxylic acid, methyl ester]
- pest or weed control at 140 g/ha [1]: 100%
- pest or weed control at 140 g/ha [2]: 100%
- pest or weed control at 140 g/ha [3]: 100%
- pest or weed control at 140 g/ha [4]: 100%
- pest or weed control at 140 g/ha [5]: 100%
- pest or weed control at 140 g/ha [6]: 100%
- pest or weed control at 70 g/ha (Scirpus juncoides): 95%
- pest or weed control at 70 g/ha [7]: 0%
- pest or weed control at 70 g/ha (Monochoria vaginalis): 100%
- pest or weed control at 70 g/ha (Cyperus difformis): 95%

Compound: COC(=O)c1nc(-c2c(F)cc(Br)c(OC)c2F)cc(N)c1Cl [Compound 77, 4-Amino-6-(4-bromo-2,6-difluoro-3-methoxyphenyl)-3-chloropyridine-2-carboxylic acid, methyl ester]
- pest or weed control at 140 g/ha [1]: 100%
- pest or weed control at 140 g/ha [2]: 100%
- pest or weed control at 140 g/ha [3]: 100%
- pest or weed control at 140 g/ha [4]: 100%
- pest or weed control at 140 g/ha [5]: 100%
- pest or weed control at 140 g/ha [6]: 100%
- pest or weed control at 35 g/ha (Scirpus juncoides; 35 g ai/ha): 99%
- pest or weed control at 35 g/ha ([7]; 35 g ai/ha): 0%
- pest or weed control at 35 g/ha (Monochoria vaginalis; 35 g ai/ha): 100%
- pest or weed control at 35 g/ha (Cyperus difformis; 35 g ai/ha): 100%

Compound: COc1c(Cl)ccc(-c2cc(N)c(Cl)c(C(=O)O)n2)c1F [Compound 100, 4-Amino-3-chloro-6-(4-chloro-2-fluoro-3-methoxyphenyl)pyridine-2-carboxylic acid]
- pest or weed control at 140 g/ha [1]: 100%
- pest or weed control at 140 g/ha [2]: 100%
- pest or weed control at 140 g/ha [3]: 100%
- pest or weed control at 140 g/ha [4]: 100%
- pest or weed control at 140 g/ha [5]: 100%
- pest or weed control at 140 g/ha [6]: 100%
- pest or weed control at 17.5 g/ha (Scirpus juncoides): 80%
- pest or weed control at 17.5 g/ha [7]: 10%
- pest or weed control at 17.5 g/ha (Monochoria vaginalis): 100%
- pest or weed control at 17.5 g/ha (Cyperus difformis): 100%

Compound: COc1c(Cl)ccc(-c2cc(N)c(Cl)c(C(=O)O)n2)c1Cl [Compound 103, 4-Amino-3-chloro-6-(2,4-dichloro-3-methoxyphenyl)pyridine-2-carboxylic acid]
- pest or weed control at 123 g/ha ([1]; 123 g ai/ha): 100%
- pest or weed control at 123 g/ha ([2]; 123 g ai/ha): 90%
- pest or weed control at 123 g/ha ([3]; 123 g ai/ha): 100%
- % Control CHEAL [4]: 100%
- % Control ABUTH [5]: 95%
- % Control AMARE [6]: 100%
- pest or weed control at 70 g/ha (Scirpus juncoides): 95%
- pest or weed control at 70 g/ha [7]: 10%
- pest or weed control at 70 g/ha (Monochoria vaginalis): 100%
- pest or weed control at 70 g/ha (Cyperus difformis): 100%

From patent US20070179060A1, “6-(Poly-substituted aryl)-4-aminopicolinates and their use as herbicides” (priority 2006, published 2007)
